Laboratory results: patent publication US8796201B2 (The Board of Trustees of the Leland Stanford Junior …, priority 2002, dated 2014)
“Also recorded” adds a separate entry of the source. Where no end group is shown, it is not given here.

Key:
PQPQLPYPQPQLP = experiment: Acceleration of brush border mediated digestion by exogenous endoproteases; format: biochemical, wheat; conditions: 27 ng/μl BBM, one hour
Experimental: FIG. 3. Dose dependent acceleration of brush border mediated digestion by exogenous endoproteases. […] This peptide was digested with 27 ng/μl brush border membranes, either alone, with increasing amounts of exogenous prolyl endopeptidase (PEP, specific activity 28 μU/pg) from Flavobacterium meningosepticum (US Biological, MA), or with additional elastase (E-1250, Sigma, Mo.), bromelain (B-5144, Sigma, Mo.) or papain (P-5306, Sigma, Mo.) (12). After one hour, the fraction of remaining (SEQ ID NO:4) […] (compared to the initial amount at t=0 min) was analyzed and quantified as in FIG. 1.
Alerted by the high proline content as a hallmark of most immunogenic gliadin peptides, a proline-specific endopeptidase was tested for the generation of new, free peptide termini. A literature search on available proteases led to the identification of prolyl endopeptidase (PEP) from Flavobacterium meningosepticum, which is specific for the C-terminal cleavage of prolines and readily available from recombinant sources (Yoshimoto et al. (1991) J. Biochem. 110, 873-8). The stable (SEQ ID NO:4) […] intermediate was digested with BBM in the presence of exogenous PEP. […] As little as 3.5 pg PEP/27 ng BBM protein was sufficient to double the extent of proteolysis of this gliadin fragment compared to incubation with BBM alone. In comparison, other commonly used proteases like papain, bromelain or porcine elastase were much less efficient, requiring 30-fold (papain) or 3000-fold (bromelain, elastase) higher amounts of enzyme compared to PEP to give similar results. Their proteolysis was restricted to the cleavage of the Gln^4-Leu^5 and/or Gln^11-Leu^12 bonds.
A similar preferential cleavage was found for (SEQ ID NO:1) QLQPFP^↓QPQLPY. This is in agreement with the preference of this prolyl endopeptidase for a second proline in the S2′ position (Bordusa and Jakubke (1998) Bioorg. Med. Chem. 6, 1775-80). Based on this P^↓XP motif and on the present data, up to 16 new, major cleavage sites can be predicted in the α2-gliadin sequence, a major source of immunodominant epitopes identified thus far upon PEP treatment. All of them are located in the critical N-terminal part. The internal cleavage by PEP can be expected to generate additional (otherwise inaccessible) substrates for DPP IV and DCP thereby complementing the natural assimilation process of gliadins by the BBM. Thus, the specificity of prolyl endopeptidase is ideally suited for detoxification of persistent immunoactive gliadin peptides in Celiac Sprue.

[1] = system: SC PEP (recombinant prolyl endopeptidase from Sphingomonas capsulata); experiment: 0.1 μM SC PEP in PBS buffer; conditions: 37° C., up to t=5 min
[2] = system: FM PEP (recombinant prolyl endopeptidase from Flavobacterium meningosepticum); experiment: 0.1 μM FM PEP in PBS buffer; conditions: 37° C.
[3] = system: MX PEP (recombinant prolyl endopeptidase from Myxococcus xanthus); experiment: 0.1 μM MX PEP in PBS buffer; conditions: 37° C.
[4] = system: pepsin or any pancreatic enzyme; experiment: pepsin or any pancreatic enzyme
[5] = system: prolyl endopeptidase (PEP, specific activity 28 μU/pg) from Flavobacterium meningosepticum (US Biological, MA); experiment: 27 ng/μl brush border membranes with exogenous prolyl endopeptidase from Flavobacterium meningosepticum; conditions: rat, up to one hour
[6] = system: rat brush border membrane (BBM) peptidases; format: in vitro ADME
Experimental: To investigate the digestion of gluten, liquid chromatography coupled mass spectroscopy analysis (LC-MS-MS) was utilized to investigate the pathways and associated kinetics of hydrolysis of immunodominant gliadin peptides treated with rat BBM preparations. Because the rodent is an excellent small animal model for human intestinal structure and function, rat BBM was chosen as a suitable model system for these studies.
BBM fractions were prepared from rat small intestinal mucosa as described in Ahnen et al. (1982) J. Biol. Chem. 257, 12129-35. […] No proline aminopeptidase (EC 3.4.11.5) or prolyl endopeptidase activity (PEP, EC 3.4.21.26) activity was detectable (<5 μU/μg). Alkaline phosphatase and sucrase were used as control BBM enzymes with activities of 66 μU/μg and 350 μU/μg, respectively.
BBM fractions were partially purified from the small intestinal mucosa of adult female rats maintained on an ad libitum diet of wheat-based standard rodent chow. Total protein content was determined by a modified method of Lowry with BSA as a standard. Alkaline phosphatase activity was determined with nitrophenyl phosphate. Sucrase activity was measured using a coupled glucose assay. […] PEP activity was determined continuously with 0.4 mM Z-Gly-Pro-pNA in PBS:H2O:dioxane (8:1.2:0.8) at 30° C. One unit is the consumption of 1 μmol substrate per minute.
Proteolysis with the BBM preparation was investigated using the peptide (SEQ ID NO:1) […], a product of chymotryptic digestion of α-9 gliadin (Arentz-Hansen et al. (2000) J. Exp. Med. 191, 603-12). […] It was subjected to BBM digestion, followed by LC-MS-MS analysis. A standard 50 μl digestion mixture contained 100 μM of synthetic peptide, 10 μM tryptophan and Cbz-tryptophan as internal standards, and resuspended BBM preparations with a final protein content of 27 ng/μl and exogenous proteins, as indicated, in phosphate buffered saline. After incubation at 37° C. for the indicated time, the enzymes were inactivated by heating to 95° C. for 3 minutes. The reaction mixtures were analyzed by LC-MS (SpectraSystem, ThermoFinnigan) using a C18 reversed phase column (Vydac 218TP5215, 2.1×150 mm) with water:acetonitrile:formic acid (0.1%):trifluoroacetic acid (0.025%) as the mobile phase (flow: 0.2 ml/min) and a gradient of 10% acetonitrile for 3 minutes, 10-20% for 3 minutes, 20-25% for 21 minutes followed by a 95% wash. Peptide fragments in the mass range of m/z=300-2000 were detected by electrospray ionization mass spectroscopy using a LCQ ion trap and their identities were confirmed by MSMS fragmentation patterns.
BBM fractions were prepared from rat small intestinal mucosa.

PQPQLPYPQPQLPY = experiment: Hydrolysis of gliadin peptide by pancreatic proteases; format: biochemical, wheat; conditions: elastase at 100 ng/μl (non-physiological)
Description: Because BBM exopeptidases are restricted to N- or C-terminal processing, it was investigated if generation of additional free peptide ends by pancreatic enzymes would accelerate digestion.

[7] = In vivo perfusion of peptides through rat jejunum; conditions: 15-20 cm jejunum segment, residence time 20 min
Experimental: FIG. 5. In vivo brush border membrane digestion of peptides.
In Vivo Endopeptidase Activity. An adult (female or male) rat was anesthetized and maintained at 36-37° C. during the entire surgical procedure. The peritoneal cavity was opened, and a small incision was made at the beginning and the end of a 15-20 cm jejunum segment. Polyethylene catheters were inserted and secured into the two ends. The input catheter was connected with a pump-driven syringe filled with a solution. The jejunum segment was perfused initially with PBS buffer to remove any residual debris at a flow rate of 0.4 ml/min. Purified peptide solutions (peptide concentration ranges from 25-100 μM) were then perfused at 0.4 ml/min through the jejunum segment with a 10-40 min residence time. In the case of a co-perfusion, the input catheter is connected with two simultaneous syringes, one with a peptide solution and the other with the prolyl endopeptidase solution (concentration ranges from 50-500 μU/μl). Fluid from the output catheter was collected into small centrifuge tubes in dry ice for subsequent analysis. The collected digestive products were analyzed by HPLC on a C18 column.

[8] = system: Lactobacillus helveticus PEP (Genbank ID#321529)
α2-gliadin = experiment: EPB2 activation and α2-gliadin digestion under acidic conditions; format: biochemical, wheat
Description: The gene for an endoprotease (EPB2; […] accession number U19384, nt 94-1963) from barley (Hordeum vulgare subsp. vulgare) was subcloned into a pET28b (Invitrogen) vector using BamH1 and EcoR1 insertion sites; the resulting plasmid was designated pMTB1. […] The proprotein was solubilized from the inclusion bodies using 7 M urea. The solubilized protein was purified on a Ni-NTA column. Auto-activation of proEPB2 to its mature, active form was achieved by addition of citrate-phosphate buffer, pH 3 (prepared by mixing 0.1 M sodium citrate and 0.2 M sodium phosphate). Under such acidic conditions, proEPB2 converts rapidly into a mature form with a molecular weight of 30 kDa (FIG. 2). By 72 hours, mature EPB2 undergoes autolysis. N-terminal sequencing yielded an N-terminal sequence beginning with VSDLP.
The pH optimum of proEPB2 activation and α2-gliadin digestion is 2.4-3.5, which can therefore provide a treatment for Celiac Sprue consisting of oral administration of proEPB2.

chymotrypsin = experiment: gastric and pancreatic proteases, chymotrypsin playing a major role
[9] = system: pepsin (1:100 w/w ratio), trypsin (1:100), chymotrypsin (1:100), elastase (1:500) and carboxypeptidase (1:100); experiment: composite gastric/pancreatic enzymatic digestion
[10] = kidney or brush border membranes

Question: With bromelain [reference compound] as the molecule, how does the “higher amount of enzyme compared to PEP to give similar results” value (“higher amount of enzyme compared to PEP” below) (PQPQLPYPQPQLP) read?
Answer: 3000 fold

Question: Which results are given for PQPQLPYPQPQLP?
Answer: cleaved bond [1]: P-Q, t=5 min; also recorded: P-Y, t=5 min; cleaved bond ([2]; up to t=5 min): P-Q, major, t=5 min; cleaved bond ([3]; up to t=5 min): P-Y, major, t=5 min; not cleaved [4]: resistant to proteolysis by pepsin or any pancreatic enzyme; cleaved bond [5]: Pro8-Gln9, major; also recorded: Pro6-Tyr7, minor

Question: For WQIPEQSR, which half-life of disappearance [6, 10] is on record?
Answer: ~60 min

Question: For trypsin, which “hydrolysis of PQPQLPYPQPQLPY” value (PQPQLPYPQPQLPY) is on record?
Answer: No proteolysis was detected

Question: Which “fraction proteolyzed in the perfusion experiment” value [7] does the source give for QLQPFPQPQLPY here?
Answer: > 90%

Question: What about the “apparent half life of disappearance of parent peptide” value [6, 10] of the same molecule?
Answer: 35 min

Question: For RPKHPIKHQ, which cleaved bond [8] is on record?
Answer: P-I

Question: For “proEPB2: inactive proprotein form of barley endoprotease EPB2”, which “pH optimum of proEPB2 activation and α2-gliadin digestion” value (α2-gliadin) is on record?
Answer: 2.4-3.5

Question: What does the source list for LQLQPFPQPQLPYPQPQLPYPQPQLPYPQPQPF?
Answer: not cleaved (chymotrypsin): remained intact despite prolonged exposure to proteases; fragment found [2]: (SEQ ID NO:12, aa 1-19) LQLQPFPQPQLPYPQPQLP, first_seen, t=1 min; also recorded: (SEQ ID NO:12, aa 1-14) LQLQPFPQPQLPYP, first_seen, t=1 min; also recorded: (SEQ ID NO:12, aa 1-12) LQLQPFPQPQLP, first_seen, t=1 min; also recorded: QPQPF, first_seen, t=1 min; not cleaved [9]: stable product of gastric and pancreatic digestion; fragment found [3]: YPQPQPF, first_seen, t=5 min

Question: For YQEPVLGPVRGPFPIIV, which cleaved bond [8] is on record?
Answer: P-V and P-I

Question: With RRLIEDNEYTARG as the molecule, how does the “clearance of digestive intermediates” value [6] read?
Answer: cleared completely within one hour

Question: What about the “apparent half life of disappearance of parent peptide” value [6, 10] of the same molecule?
Answer: 10 min

Question: Which “hydrolysis of PQPQLPYPQPQLPY” value (PQPQLPYPQPQLPY) does the source give for “elastase: porcine elastase (E-1250, Sigma), pancreatic protease [reference compound]” here?
Answer: capable of hydrolyzing

Question: And the “higher amount of enzyme compared to PEP” value (PQPQLPYPQPQLP)?
Answer: 3000 fold

Question: Which “hydrolysis of PQPQLPYPQPQLPY” value (PQPQLPYPQPQLPY) does the source give for chymotrypsin here?
Answer: No proteolysis was detected

Question: Which “digestion of purified α2-gliadin” value (α2-gliadin; acidic conditions, mature form) does the source give for “EPB2: cysteine endoprotease from barley (Hordeum vulgare), accession U19384” here?
Answer: efficiently digests purified α2-gliadin

Question: And the “time by which mature form undergoes autolysis” value (α2-gliadin; citrate-phosphate buffer, pH 3)?
Answer: ≤ 72 h

B1: papain: papain (P-5306, Sigma) (protein, UniProt P00784 134-345, looked up)
Papain: IPEYVDWRQKGAVTPVKNQGSCGSCWAFSAVVTIEGIIKIRTGNLNEYSEQELLDCDRRSYGCNGGYPWSALQLVAQYGIHYRNTYPYEGVQRYCRSREKGPYAAKTDGVRQVQPYNEGALLYSIANQPVSVVLEAAGKDFQLYRGGIFVGPCGNKVDHAVAAVGYGPNYILIKNSWGTGWGENGYIRIKRGTGNSYGVCGLYTSSFYPVKN
Question: For B1, which “higher amount of enzyme compared to PEP” value (PQPQLPYPQPQLP) is on record?
Answer: 30 fold
